Reference: patent US8030342B2, “Dendritic polyamidoamine phthalocyanine derivative” (Nihon University, priority 2006, dated 2011)
Several values for one entry are separate records, joined by “and”; a condition that tells them apart may be missing. Equal entries are not always repeated.

Legend:
Assay type in all cases: physicochemical
[1] = fluorescence spectra; details: fluorescence maximum
[2] = ESR spectra
Source text: Also, the data on g value indicate that the dendritic PC generates radicals.

[3] = UV-Vis spectra; set-up: λmax: unit not given here; details: for λmax: UV-Vis absorption maxima; for log ε: UV-Vis, at the λmax of the same line

Compound | Fmax [1] | g value [2] | λmax [3] | log ε [3]
c1ccc2c(c1)C1=NC2=Nc2c3ccccc3c3[n]2[Zn][n]2c(c4ccccc4c2=NC2=NC(=N3)c3ccccc32)=N1 [Zn—PC] | 715 | 1.9712 and 2.0245 | 655.50 and 607.00 | 4.5813 and 4.5391
O=C(O)c1cc2c(cc1C(=O)O)-c1nc-2nc2[n-]c(nc3nc(nc4[n-]c(n1)c1cc(C(=O)O)c(C(=O)O)cc41)-c1cc(C(=O)O)c(C(=O)O)cc1-3)c1cc(C(=O)O)c(C(=O)O)cc21.[Zn+2] [Zn—PC octacarboxylic acid, Zinc Phthalocyanine (PC) Octacarboxylic Acid] | 780 | 1.9713 and 2.0245 | 769.00 and 747.00 | 4.2560 and 4.2054
Zinc Phthalocyanine Tetracarboxylic Acid [Zn—PC tetracarboxylic acid] | 805 | 2.0245 and 1.9713 | 690.50 and 772.50 | –
c1ccc2c(c1)-c1nc-2nc2[nH]c(nc3nc(nc4[nH]c(n1)c1ccccc41)-c1ccccc1-3)c1ccccc21 [H2—PC] | 625 and 700 | 1.9712 and 2.0245 | 687.50 and 654.00 and 624.50 | –
